What all share (type): cell-based
Experiment [1] deals with T1, protein kinases (human kinome) (Homo sapiens, UniProt O75385).
T1 sequence (O75385 1-1050): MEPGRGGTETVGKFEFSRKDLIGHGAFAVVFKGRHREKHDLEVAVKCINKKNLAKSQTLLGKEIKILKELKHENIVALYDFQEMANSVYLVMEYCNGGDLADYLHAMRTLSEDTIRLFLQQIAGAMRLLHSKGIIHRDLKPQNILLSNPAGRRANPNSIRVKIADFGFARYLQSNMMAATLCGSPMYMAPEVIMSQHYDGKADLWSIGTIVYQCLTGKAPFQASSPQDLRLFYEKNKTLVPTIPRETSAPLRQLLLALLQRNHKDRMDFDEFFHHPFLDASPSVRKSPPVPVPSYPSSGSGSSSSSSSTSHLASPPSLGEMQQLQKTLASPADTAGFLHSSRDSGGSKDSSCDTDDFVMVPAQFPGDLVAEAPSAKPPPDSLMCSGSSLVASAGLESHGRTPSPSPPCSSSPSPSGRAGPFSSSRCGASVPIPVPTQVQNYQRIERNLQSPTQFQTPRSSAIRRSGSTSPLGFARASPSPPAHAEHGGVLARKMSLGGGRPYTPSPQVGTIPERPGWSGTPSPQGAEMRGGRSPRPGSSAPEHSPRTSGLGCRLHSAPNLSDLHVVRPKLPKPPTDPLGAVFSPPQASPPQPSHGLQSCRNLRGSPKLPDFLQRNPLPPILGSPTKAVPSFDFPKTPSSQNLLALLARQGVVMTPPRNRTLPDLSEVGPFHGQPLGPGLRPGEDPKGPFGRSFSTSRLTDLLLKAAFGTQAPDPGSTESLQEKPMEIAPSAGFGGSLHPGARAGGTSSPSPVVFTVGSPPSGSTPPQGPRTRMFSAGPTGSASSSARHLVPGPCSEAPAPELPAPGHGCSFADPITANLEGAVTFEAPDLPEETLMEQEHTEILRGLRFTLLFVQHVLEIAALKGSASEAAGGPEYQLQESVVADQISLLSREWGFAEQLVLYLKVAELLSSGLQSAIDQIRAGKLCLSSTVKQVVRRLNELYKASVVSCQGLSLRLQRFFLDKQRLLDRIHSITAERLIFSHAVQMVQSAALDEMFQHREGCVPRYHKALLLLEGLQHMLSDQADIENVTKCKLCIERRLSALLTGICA
The conditions noted are these: for logFC: ULK1 (O75385) protein abundance, degrader vs DMSO, down; for logFC ULK1: ULK1 O75385.

The target of experiment [2] is protein kinases (human kinome) (Homo sapiens, UniProt P30291).
Experiment [3] concerns the target protein kinases (human kinome) (Homo sapiens, UniProt Q2M2I8).
Experiment [4] concerns protein kinases (human kinome).
For experiment [5], the target named is protein kinases (human kinome) (Homo sapiens, UniProt P11802).
In experiment [6] the target is protein kinases (human kinome) (Homo sapiens, UniProt P16591). To be noted: for logFC of FER (P16591-1): down; for logFC of FER: FER P16591-1.
The target of experiment [7] is T2, protein kinases (human kinome) (Homo sapiens, UniProt O14965).
T2 sequence (O14965 1-403): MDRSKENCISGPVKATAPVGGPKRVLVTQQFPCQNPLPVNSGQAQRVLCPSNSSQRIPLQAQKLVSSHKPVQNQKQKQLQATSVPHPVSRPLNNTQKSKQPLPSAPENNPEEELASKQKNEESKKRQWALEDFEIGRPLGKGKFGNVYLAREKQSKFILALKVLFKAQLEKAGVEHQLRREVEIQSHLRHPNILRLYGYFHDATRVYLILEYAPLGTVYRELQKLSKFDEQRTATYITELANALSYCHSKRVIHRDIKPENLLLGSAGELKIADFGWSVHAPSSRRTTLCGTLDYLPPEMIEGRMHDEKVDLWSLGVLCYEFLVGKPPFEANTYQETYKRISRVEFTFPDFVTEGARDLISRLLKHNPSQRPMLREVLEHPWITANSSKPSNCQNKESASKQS
The conditions noted are these: experiment wp016.

This note sets out measurements from patent US20240269139A1, “COMPOUNDS FOR TARGETED PROTEIN DEGRADATION OF KINASES” (DANA-FARBER CANCER INSTITUTE, INC., priority 2020, published 2024).

Like-named read-outs stand apart in the source and are kept apart here.

Chain of protein kinases (human kinome) (Homo sapiens, UniProt Q2M2I8) (Q2M2I8 whole entry): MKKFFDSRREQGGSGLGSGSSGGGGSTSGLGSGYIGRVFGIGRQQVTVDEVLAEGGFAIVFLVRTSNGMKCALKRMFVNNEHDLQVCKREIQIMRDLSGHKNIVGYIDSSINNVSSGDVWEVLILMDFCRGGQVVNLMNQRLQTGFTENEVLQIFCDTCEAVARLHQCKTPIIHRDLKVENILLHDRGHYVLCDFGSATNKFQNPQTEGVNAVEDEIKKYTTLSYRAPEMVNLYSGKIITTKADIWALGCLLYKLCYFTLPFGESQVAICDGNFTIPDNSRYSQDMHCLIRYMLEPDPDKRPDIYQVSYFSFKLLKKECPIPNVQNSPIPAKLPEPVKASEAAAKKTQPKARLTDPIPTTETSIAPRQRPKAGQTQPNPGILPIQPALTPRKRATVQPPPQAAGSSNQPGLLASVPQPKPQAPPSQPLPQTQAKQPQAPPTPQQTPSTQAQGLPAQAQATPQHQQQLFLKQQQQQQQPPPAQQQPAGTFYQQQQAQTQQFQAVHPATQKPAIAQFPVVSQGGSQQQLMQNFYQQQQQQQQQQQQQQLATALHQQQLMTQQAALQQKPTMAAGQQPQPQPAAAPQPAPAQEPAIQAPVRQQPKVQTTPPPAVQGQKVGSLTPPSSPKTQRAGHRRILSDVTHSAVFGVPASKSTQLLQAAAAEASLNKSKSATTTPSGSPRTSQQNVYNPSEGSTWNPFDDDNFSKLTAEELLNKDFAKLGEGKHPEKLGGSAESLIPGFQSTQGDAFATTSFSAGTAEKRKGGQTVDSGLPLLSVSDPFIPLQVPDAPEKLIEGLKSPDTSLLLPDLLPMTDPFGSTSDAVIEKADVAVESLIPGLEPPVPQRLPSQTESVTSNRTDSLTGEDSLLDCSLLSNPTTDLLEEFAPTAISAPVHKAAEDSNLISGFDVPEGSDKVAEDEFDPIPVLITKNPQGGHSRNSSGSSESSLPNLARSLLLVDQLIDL
Chain of protein kinases (human kinome) (Homo sapiens, UniProt P11802) (P11802 whole entry): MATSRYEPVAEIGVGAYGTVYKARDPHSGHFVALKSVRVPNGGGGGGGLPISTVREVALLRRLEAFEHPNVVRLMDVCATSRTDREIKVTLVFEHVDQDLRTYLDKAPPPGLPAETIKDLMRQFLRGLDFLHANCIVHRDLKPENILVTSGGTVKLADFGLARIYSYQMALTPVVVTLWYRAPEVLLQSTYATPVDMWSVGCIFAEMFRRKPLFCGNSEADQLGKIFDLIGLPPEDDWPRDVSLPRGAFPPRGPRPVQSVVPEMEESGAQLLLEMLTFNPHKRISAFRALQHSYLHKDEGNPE
Chain of protein kinases (human kinome) (Homo sapiens, UniProt P30291) (P30291 whole entry): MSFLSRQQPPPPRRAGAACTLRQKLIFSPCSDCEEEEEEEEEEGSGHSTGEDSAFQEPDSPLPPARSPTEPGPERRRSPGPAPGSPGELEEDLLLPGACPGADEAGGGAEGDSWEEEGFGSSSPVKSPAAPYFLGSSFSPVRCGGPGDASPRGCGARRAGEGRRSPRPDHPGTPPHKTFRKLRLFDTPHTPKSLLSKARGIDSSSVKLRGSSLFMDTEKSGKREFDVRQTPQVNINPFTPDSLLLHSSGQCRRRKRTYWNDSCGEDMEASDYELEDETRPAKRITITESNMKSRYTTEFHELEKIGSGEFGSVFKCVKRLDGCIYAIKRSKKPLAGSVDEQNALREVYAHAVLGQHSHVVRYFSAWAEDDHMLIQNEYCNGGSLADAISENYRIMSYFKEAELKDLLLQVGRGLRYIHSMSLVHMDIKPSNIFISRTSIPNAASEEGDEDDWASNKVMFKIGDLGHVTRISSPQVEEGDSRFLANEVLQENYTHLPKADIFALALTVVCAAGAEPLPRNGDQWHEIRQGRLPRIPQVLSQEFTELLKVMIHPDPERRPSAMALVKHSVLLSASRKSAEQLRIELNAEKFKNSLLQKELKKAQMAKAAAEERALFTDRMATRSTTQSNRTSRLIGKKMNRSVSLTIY
Chain of protein kinases (human kinome) (Homo sapiens, UniProt P16591) (P16591 whole entry): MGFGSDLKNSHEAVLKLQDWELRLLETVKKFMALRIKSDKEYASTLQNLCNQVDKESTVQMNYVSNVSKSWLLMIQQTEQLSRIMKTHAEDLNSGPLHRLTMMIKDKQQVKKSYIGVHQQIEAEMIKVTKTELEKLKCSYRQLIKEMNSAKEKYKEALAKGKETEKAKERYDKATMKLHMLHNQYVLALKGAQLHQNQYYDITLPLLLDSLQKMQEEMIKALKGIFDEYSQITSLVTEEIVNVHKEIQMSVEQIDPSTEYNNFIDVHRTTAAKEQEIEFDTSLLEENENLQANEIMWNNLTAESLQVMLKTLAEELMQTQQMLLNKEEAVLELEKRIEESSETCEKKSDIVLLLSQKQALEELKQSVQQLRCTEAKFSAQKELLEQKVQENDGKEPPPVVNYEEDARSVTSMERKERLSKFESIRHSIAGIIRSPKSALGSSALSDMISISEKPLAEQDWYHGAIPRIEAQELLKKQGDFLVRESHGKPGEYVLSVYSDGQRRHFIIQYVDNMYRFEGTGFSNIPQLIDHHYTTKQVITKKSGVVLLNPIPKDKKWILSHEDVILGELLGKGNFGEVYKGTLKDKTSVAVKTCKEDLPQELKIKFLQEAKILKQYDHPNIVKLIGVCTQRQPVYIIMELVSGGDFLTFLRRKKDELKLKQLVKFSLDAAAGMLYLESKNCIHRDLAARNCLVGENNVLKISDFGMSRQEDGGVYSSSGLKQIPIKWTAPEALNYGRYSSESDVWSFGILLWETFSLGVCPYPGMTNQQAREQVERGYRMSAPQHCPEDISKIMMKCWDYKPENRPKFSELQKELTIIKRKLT

For `Cc1ncsc1-c1ccc([C@H](C)NC(=O)[C@@H]2C[C@@H](O)CN2C(=O)[C@@H](NC(=O)CCCCCN2CCc3cc(Nc4ncc(C5CC5)c(NCCCNC(=O)C5CCC5)n4)ccc3C2)C(C)(C)C)cc1` [BSJ.05.026], the logFC in experiment [1] is −0.4424; in experiment [4] (MARK3 (P27448-5), experiment wp195) it was −0.8242. Further, the “logFC ULK1” value in experiment [1] (experiment wp195) was −0.4424. Further, the “logFC WEE1 (P30291-1)” value in experiment [2] (Experiment wp195) is −0.8876. Besides, in experiment [2] (WEE1 P30291-1, experiment wp196), the “logFC of WEE1” value is −0.8876. In addition, the “logFC AAK1” value in experiment [3] (AAK1 (Q2M218-1), experiment wp195, down) is on record as −3.073; in experiment [3] (AAK1, accession Q2M218-1, experiment wp195, direction of change down) it was −3.073. Further, the “logFC MARK3 (P27448-5)” value in experiment [4] (experiment wp195, direction of change down) is given as −0.8242.

As for `Cc1ccc(NC(=O)c2cccc(C(F)(F)F)c2)cc1N1Cc2cnc(Nc3ccc(N4CCN(CCCCC(=O)N[C@H](C(=O)N5C[C@H](O)C[C@H]5C(=O)N[C@@H](C)c5ccc(-c6scnc6C)cc5)C(C)(C)C)CC4)nc3)nc2N(C)C1=O` [DB1113], the logFC is listed as −0.352 in experiment [1] and −1.705 in experiment [4] (PTK2B (Q14289-2), experiment wp168, direction down). In experiment [1] (experiment wp168), the “logFC ULK1” value is on record as −0.352. In addition, the “logFC CDK4 (P11802)” value in experiment [5] (experiment wp168) is listed as −0.4373. Besides, in experiment [6] (Experiment wp168), the “logFC of FER (P16591-1)” value is on record as −1.118. Moreover, the “logFC of FER” value in experiment [6] (experiment wp168) was −1.118. Further, the “logFC MAP3K20 (Q9NYL2-2)” value in experiment [4] (Experiment wp168) and in experiment [4] (experiment wp168) was −0.9693 each time. In addition, in experiment [4] (Experiment wp168, direction down), the “logFC MAPK8 (P45983-4)” value is on record as −0.3642. Moreover, the “logFC MAPK8” value in experiment [4] (MAPK8 P45983-4, experiment wp168) was −0.3642. For the same compound, the “logFC MAPK14” value in experiment [4] (MAPK14, accession Q16539-2, experiment wp168, direction of change down) was −1.588; in experiment [4] (MAPK14 Q16539-2, experiment wp168), −1.588. Besides, the “logFC PTK2B” value in experiment [4] (PTK2B, accession Q14289-2, experiment wp168, direction of change down) was −1.705. The “kinases the bifunctional compound degrades” value in experiment [4] (as stated for the structure in the embodiments) was “ABL1, ABL2, BLK, CDK11B, CDK4, CSK, EPHA3, FER, GAK, LIMK1, MAP3K20, MAP4K1, MAP4K2, MAP4K3, MAP4K5, MAPK14, MAPK7, MAPK8, MAPK9, MAPKAPK2, MAPKAPK3, NLK, PDIK1L, PTK2B, RIPK1, RPS6KA1, RPS6KA3, SIK2, SIK3, STK35, TNK2, and ULK1”. Moreover, in experiment [4] (kinases significantly downregulated vs DMSO (fold change cutoff −1.25, P-value<0.01), ≤8 h, 0.1-5 μM degrader, 7 cell lines), the Kinase hits entry is recorded as “ABL1, ABL2, BLK, CDK11B, CDK4, CSK, EPHA3, FER, GAK, LIMK1, MAP3K20, MAP4K1, MAP4K2, MAP4K3, MAP4K5, MAPK14, MAPK7, MAPK8, MAPK9, MAPKAPK2, MAPKAPK3, NLK, PDIK1L, PTK2B, RIPK1, RPS6KA1, RPS6KA3, SIK2, SIK3, STK35, TNK2, ULK1”. In addition, the “Total no. kinase hits” value in experiment [4] (number of degraded kinases per library compound) turned out to be 31.

With `CC(C)S(=O)(=O)c1ccccc1Nc1nc(Nc2ccc(N3CCN(CCOCCNC(=O)CNc4ccc5c(c4)C(=O)N(C4CCC(=O)NC4=O)C5=O)CC3)cc2)ncc1Cl` (centres unmarked) [SK.3.93], the “logFC AURKA (O14965)” value in experiment [7] is −1.823. In experiment [5] (experiment wp016), the “logFC CDK4 (P11802)” value is −1.305. Besides, the “logFC of FER (P16591-1)” value in experiment [6] (Experiment wp016) was −2.64. Besides, the “logFC of FER” value in experiment [6] (experiment wp016) was −2.64. Moreover, the “logFC WEE1 (P30291-1)” value in experiment [2] (experiment wp016) is −1.176. For the same compound, the “logFC AAK1” value in experiment [3] (AAK1 (Q2M218-1), experiment wp016, down) is reported as −1.588; in experiment [3] (AAK1, accession Q2M218-1, experiment wp016, direction of change down), −1.588. For the same compound, in experiment [4] (Accession P12931-2, experiment wp016), the “logFC of SRC” value is on record as −0.3456. In addition, the logFC is on record as −0.6376 in experiment [4] (CDK9 (P50750-2) protein abundance, degrader vs DMSO, down) and −0.3456 in experiment [4] (SRC (P12931-2) protein abundance, degrader vs DMSO, down). In addition, the “logFC PRKAA1 (Q13131-2)” value in experiment [4] (Experiment wp016, direction down) is recorded as −0.4738; in experiment [4] (experiment wp016), −0.4738. In addition, the “logFC LCK” value in experiment [4] (LCK, accession P06239-3, experiment wp016, direction of change down) is −0.7798. Further, the “logFC RPS6KA1” value in experiment [4] (RPS6KA1 (Q15418-2), experiment wp016) was −0.3413. For the same compound, the “logFC CDK9 (P50750-2)” value in experiment [4] (experiment wp016) was −0.6376. The “logFC RPS6KA1 (Q15418-2)” value in experiment [4] (experiment wp016) is reported as −0.3413. Further, the “logFC LCK (P06239-3)” value in experiment [4] (experiment wp016, direction of change down) was −0.7798.
